Experimental data: patent US9612237B2, “Ritalinic acid immunoassay” (Randox Laboratories Limited, priority 2013, dated 2017)
In brackets after ≈: the same amount, converted by molar mass. Where a name gives a salt, the structure may show the parent alone. Read-outs that look alike come from different tables or passages of the source.

Assays:
[1] = test system: antibodies of the invention (antisera generated in response to immunogen of Example 5); assay: Competitive chemiluminescent biochip immunoassay, antiserum raised against immunogen of Example 5, HRP conjugate of Example 6; assay type: binding, sheep; conditions: for No measurable CR at given concentration: value is the concentration at which no cross-reactivity was exhibited; for Cross-reactivity / IC50: biochip; for Cross-reactivity: based on 100% specificity to RA; for IC50: calibrator concentration which produces 50% B/B0
[2] = test system: antisera generated in response to immunogen of Example 11; assay: Competitive chemiluminescent biochip immunoassay, antisera raised against immunogen of Example 11, conjugate of Example 12; assay type: binding, sheep; conditions: for IC50 / % cross reactivity: biochip; for % cross reactivity: relative to methylphenidate = 100
[3] = test system: antibodies of the invention (antisera generated in response to immunogen of Example 5); assay: ELISA, antiserum raised against immunogen of Example 5, HRP conjugate of Example 6; assay type: binding, sheep; conditions: for Ave OD: absorbance at 450 nm; for % CR: relative to ritalinic acid = 100
Description: Immunogen (2 mg) from Examples 5 or 11 was prepared in PBS, mixed at a ratio of 50% immunogen in PBS to 50% Freund's Complete Adjuvant (Sigma, Product Number F5881) and emulsified by repeatedly passing the mixture through a tip on the end of a 1 ml syringe, until semi-solid. The emulsified mixture (1 ml) was injected intramuscularly into the sheep (the primary immunisation dose). Further injections (boosts) were prepared (1 mg of immunogen is prepared in PBS and mixed at a ratio of 50% immunogen PBS/50% Freunds Incomplete adjuvant, Sigma, Product Number—F5506) and injected (1 ml) intramuscularly at monthly intervals. Serum was sampled monthly by collection of whole blood from the jugular vein for evaluation of the antibody titre. Prior to immobilisation on a solid substrate (for example, the biochip), the serum was purified using caprylic acid/ammonium sulphate precipitation, as described for example in Chapter 4 of “Making and Using Antibodies—A Practical Handbook” 2nd Edition, edited by G C Howard and M R Kaser, CRC Press.
The ELISA data provided below correspond to the same immunogen, antibody and tracer combination used to generate the Biochip standard curves, i.e. antibodies of the invention (antisera generated in response to immunogen of Example 5) and (2-(4-aminophenyl)-2-(piperidin-2-yl) acetic acid conjugated to HRP (Example 6). The assay methodology used to generate the ELISA data was standard ELISA methodology. Briefly, a microtitre plate was coated with Ig fraction of the antiserum produced at 5 μg/ml, prepared in Tris buffer, pH8.5. The coated plate was simultaneously incubated with calibrator/sample (from 0 ng/ml-80 ng/ml) and HRP conjugate at ⅛K dilution. After washing and substrate addition, absorbances were read at 450 nm. The absorbance in each well was inversely proportional to the concentration of ritalinic acid or methylphenidate hydrochloride in the calibrator/sample added to that well.

[4] = test system: Abcam polyclonal sheep antibody to MPH; conditions: Abcam antibody raised using MPH-BTG as the immunogen; cited from earlier work
[5] = Methylphenidate calibrator 78.13 ng/ml
[6] = Methylphenidate calibrator 156.25 ng/ml
[7] = Methylphenidate calibrator 312.50 ng/ml
[8] = Methylphenidate calibrator 625 ng/ml
[9] = Methylphenidate calibrator 1,250.00 ng/ml
[10] = Methylphenidate calibrator 2,500.00 ng/ml
[11] = Methylphenidate calibrator 5,000.00 ng/ml
[12] = Methylphenidate calibrator 10,000.00 ng/ml
[13] = value is the concentration at which no cross-reactivity was exhibited

CCOC(=O)C(c1ccccc1)C1CCCCN1 (centres unmarked) [Ethylphenidate]
No measurable CR at given concentration [1]: 100 µg/mL

N[C@H]1CC[C@@H](c2ccc(Cl)c(Cl)c2)c2ccccc21 [Norsertraline]
No measurable CR at given concentration [1]: 10 µg/mL

COC(=O)C(c1ccccc1)C1CCCCN1 (centres unmarked) [Methylphenidate, methylphenidate]
B/B0 % [1, 5]: 87% | RLU [1, 5]: 3878 RLU | B/B0 % [1, 6]: 81% | RLU [1, 6]: 3604 RLU | B/B0 % [1, 7]: 75% | RLU [1, 7]: 3319 RLU | B/B0 % [1, 8]: 66% | RLU [1, 8]: 2912 RLU | B/B0 % [1, 9]: 51% | RLU [1, 9]: 2244 RLU | B/B0 % [1, 10]: 34% | RLU [1, 10]: 1517 RLU | B/B0 % [1, 11]: 23% | RLU [1, 11]: 1015 RLU | B/B0 % [1, 12]: 16% | RLU [1, 12]: 697 RLU | Cross-reactivity [1]: Cross-reactivity 0.4% | IC50 [1]: IC50 = 1,323.50 ng/ml | IC50 [2]: 2.6 ng/mL (≈ 0.0111 µM) | % cross reactivity [2]: 100%

CNCCC=C1c2ccccc2CCc2ccccc21 [Nortriptylene]
No measurable CR at given concentration [1]: 10 µg/mL

O=C(O)C(c1ccccc1)C1CCCCN1 (centres unmarked) [RA, ritalinic acid]
B/B0 % ([1]; RA calibrator 3.91 ng/ml): 65% | RLU ([1]; RA calibrator 3.91 ng/ml): 3459 RLU | B/B0 % ([1]; RA calibrator 7.81 ng/ml): 40% | RLU ([1]; RA calibrator 7.81 ng/ml): 2552 RLU | B/B0 % ([1]; RA calibrator 15.63 ng/ml): 31% | RLU ([1]; RA calibrator 15.63 ng/ml): 1980 RLU | B/B0 % ([1]; RA calibrator 31.25 ng/ml): 18% | RLU ([1]; RA calibrator 31.25 ng/ml): 1111 RLU | B/B0 % ([1]; RA calibrator 62.50 ng/ml): 11% | RLU ([1]; RA calibrator 62.50 ng/ml): 677 RLU | B/B0 % ([1]; RA calibrator 125.00 ng/ml): 6% | RLU ([1]; RA calibrator 125.00 ng/ml): 374 RLU | B/B0 % ([1]; RA calibrator 250.00 ng/ml): 4% | RLU ([1]; RA calibrator 250.00 ng/ml): 247 RLU | B/B0 % ([1]; RA calibrator 500.00 ng/ml): 2% | RLU ([1]; RA calibrator 500.00 ng/ml): 134 RLU | Cross-reactivity [1]: Cross-reactivity 100% | IC50 [1]: IC50 = 5.21 ng/ml, | IC50 [3]: 8.41 ng/mL | Ave OD ([3]; calibrator 1.25 ng/ml): 1.346 | Ave OD ([3]; calibrator 2.5 ng/ml): 1.169 | Ave OD ([3]; calibrator 5 ng/ml): 0.987 | Ave OD ([3]; calibrator 10 ng/ml): 0.751 | Ave OD ([3]; calibrator 20 ng/ml): 0.584 | Ave OD ([3]; calibrator 40 ng/ml): 0.424 | Ave OD ([3]; calibrator 80 ng/ml): 0.311 | B/Bo ([3]; calibrator 1.25 ng/ml): 82.4 | B/Bo ([3]; calibrator 2.5 ng/ml): 71.5 | B/Bo ([3]; calibrator 5 ng/ml): 60.4 | B/Bo ([3]; calibrator 10 ng/ml): 46.0 | B/Bo ([3]; calibrator 20 ng/ml): 35.7 | B/Bo ([3]; calibrator 40 ng/ml): 26.0 | B/Bo ([3]; calibrator 80 ng/ml): 19.0 | % CR [3]: 100% | IC50 [2]: 260 ng/mL (≈ 1.19 µM) | % cross reactivity [2]: 1% | % cross reactivity ([2]; listed as ritalinic acid): 1.0% | Cross-reactivity [4]: less than 0.9%

CC(=O)Nc1ccc(O)cc1 [Acetoaminophen]
No measurable CR at given concentration [1]: 1000 µg/mL | Concentration exhibiting no cross-reactivity [2, 13]: 2500 µg/mL

CCO[C@@H]1O[C@H](C(=O)O)[C@@H](O)[C@H](O)[C@H]1O [Ethyl glucuronide]
No measurable CR at given concentration [1]: 100 µg/mL | Concentration exhibiting no cross-reactivity [2, 13]: 100 µg/mL

O=C(CCCN1CCC(O)(c2ccc(Cl)cc2)CC1)c1ccc(F)cc1 [Haloperidol]
No measurable CR at given concentration [1]: 10 µg/mL | Concentration exhibiting no cross-reactivity [2, 13]: 10 µg/mL

Clc1cccc(N2CCNCC2)c1 [mCPP]
No measurable CR at given concentration [1]: 10 µg/mL

COC(=O)C(c1ccccc1)C1CCCCN1 (centres unmarked) [Methylphenidate Hydrochloride]
IC50 [3]: >>>80 ng/ml | Ave OD ([3]; calibrator 1.25 ng/ml): 1.677 | Ave OD ([3]; calibrator 2.5 ng/ml): 1.644 | Ave OD ([3]; calibrator 5 ng/ml): 1.635 | Ave OD ([3]; calibrator 10 ng/ml): 1.563 | Ave OD ([3]; calibrator 20 ng/ml): 1.476 | Ave OD ([3]; calibrator 40 ng/ml): 1.402 | Ave OD ([3]; calibrator 80 ng/ml): 1.311 | B/Bo ([3]; calibrator 1.25 ng/ml): 101.9 | B/Bo ([3]; calibrator 2.5 ng/ml): 99.9 | B/Bo ([3]; calibrator 5 ng/ml): 99.4 | B/Bo ([3]; calibrator 10 ng/ml): 95.0 | B/Bo ([3]; calibrator 20 ng/ml): 89.7 | B/Bo ([3]; calibrator 40 ng/ml): 85.2 | B/Bo ([3]; calibrator 80 ng/ml): 79.7 | % CR [3]: <<<10.5%

COc1cccc(C2(O)CCCCC2CN(C)C)c1 (centres unmarked) [Tramadol]
No measurable CR at given concentration [1]: 10 µg/mL

CNCCC(Oc1ccc(C(F)(F)F)cc1)c1ccccc1 (centres unmarked) [fluoxetine]
No measurable CR at given concentration [1]: 100 µg/mL

O=C(O)c1ccccc1O [Salicylic acid]
No measurable CR at given concentration [1]: 1000 µg/mL | Concentration exhibiting no cross-reactivity [2, 13]: 1000 µg/mL

CNCCC[C@@]1(c2ccc(F)cc2)OCc2cc(C#N)ccc21 [N-desmethylescilatopram]
No measurable CR at given concentration [1]: 10 µg/mL

CC(C)Cc1ccc(C(C)C(=O)O)cc1 (centres unmarked) [Ibuprofen]
No measurable CR at given concentration [1]: 1000 µg/mL | Concentration exhibiting no cross-reactivity ([2]; value is the concentration at which no cross-reactivity was exhibited, listed as ibuprofen): 1000 µg/mL

Dextromorphan
No measurable CR at given concentration [1]: 10 µg/mL

O=C(Oc1ccccc1C(=O)O)c1ccccc1O [salsalate]
Concentration exhibiting no cross-reactivity [2, 13]: 250 µg/mL

CN1CCN(C(=O)OC2c3nccnc3C(=O)N2c2ccc(Cl)cn2)CC1 (centres unmarked) [zopiclone]
Concentration exhibiting no cross-reactivity [2, 13]: 10 µg/mL

O=c1n(CCC[N+]2([O-])CCN(c3cccc(Cl)c3)CC2)nc2ccccn12 [trazodone N-oxide]
Concentration exhibiting no cross-reactivity [2]: 0.4 µg/mL
